What all share (test): TGFα-shedding assay-based GPCR screening with chimeric Gα subunit proteins
Format in all cases: cell-based

For test [1], the target named is T1, 348 GPCRs (Homo sapiens, UniProt Q86SQ6).
T1 construct: expressed in transfected cells; host or cells: HEK293A
T1 sequence (Q86SQ6 1-560): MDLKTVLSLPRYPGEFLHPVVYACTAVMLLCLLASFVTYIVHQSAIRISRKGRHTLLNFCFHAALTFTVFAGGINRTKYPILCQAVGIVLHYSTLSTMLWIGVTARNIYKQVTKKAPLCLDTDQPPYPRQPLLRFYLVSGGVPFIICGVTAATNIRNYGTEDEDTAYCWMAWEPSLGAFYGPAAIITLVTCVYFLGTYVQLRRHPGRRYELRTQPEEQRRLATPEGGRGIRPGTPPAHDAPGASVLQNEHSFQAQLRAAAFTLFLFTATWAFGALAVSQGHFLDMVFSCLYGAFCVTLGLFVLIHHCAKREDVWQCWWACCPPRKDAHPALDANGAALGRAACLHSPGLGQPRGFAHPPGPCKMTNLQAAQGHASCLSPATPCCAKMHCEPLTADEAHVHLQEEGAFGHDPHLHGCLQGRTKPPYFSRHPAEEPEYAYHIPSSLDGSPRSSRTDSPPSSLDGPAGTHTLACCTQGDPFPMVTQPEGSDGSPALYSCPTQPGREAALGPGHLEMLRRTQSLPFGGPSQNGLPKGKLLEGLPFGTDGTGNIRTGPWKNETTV

Test [2] concerns the target T2, 348 GPCRs (Homo sapiens, UniProt P49146).
T2 construct: expressed in transfected cells; host or cells: HEK293A
T2 sequence (P49146 1-381): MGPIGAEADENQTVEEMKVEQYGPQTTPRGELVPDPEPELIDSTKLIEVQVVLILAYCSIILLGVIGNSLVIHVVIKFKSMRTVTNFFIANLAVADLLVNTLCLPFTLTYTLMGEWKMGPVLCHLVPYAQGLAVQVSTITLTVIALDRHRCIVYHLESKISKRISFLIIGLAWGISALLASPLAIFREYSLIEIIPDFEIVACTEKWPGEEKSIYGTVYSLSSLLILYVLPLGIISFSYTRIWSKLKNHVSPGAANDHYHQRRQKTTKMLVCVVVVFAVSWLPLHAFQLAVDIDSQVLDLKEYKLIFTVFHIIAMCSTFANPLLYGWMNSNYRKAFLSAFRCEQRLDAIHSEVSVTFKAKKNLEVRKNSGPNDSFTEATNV
The settings on record: 10µM, Favipiravir 100μM.

Test [3] addresses T3, 348 GPCRs (Homo sapiens, UniProt Q96P66).
T3 construct: expressed in transfected cells; host or cells: HEK293A
T3 sequence (Q96P66 1-508): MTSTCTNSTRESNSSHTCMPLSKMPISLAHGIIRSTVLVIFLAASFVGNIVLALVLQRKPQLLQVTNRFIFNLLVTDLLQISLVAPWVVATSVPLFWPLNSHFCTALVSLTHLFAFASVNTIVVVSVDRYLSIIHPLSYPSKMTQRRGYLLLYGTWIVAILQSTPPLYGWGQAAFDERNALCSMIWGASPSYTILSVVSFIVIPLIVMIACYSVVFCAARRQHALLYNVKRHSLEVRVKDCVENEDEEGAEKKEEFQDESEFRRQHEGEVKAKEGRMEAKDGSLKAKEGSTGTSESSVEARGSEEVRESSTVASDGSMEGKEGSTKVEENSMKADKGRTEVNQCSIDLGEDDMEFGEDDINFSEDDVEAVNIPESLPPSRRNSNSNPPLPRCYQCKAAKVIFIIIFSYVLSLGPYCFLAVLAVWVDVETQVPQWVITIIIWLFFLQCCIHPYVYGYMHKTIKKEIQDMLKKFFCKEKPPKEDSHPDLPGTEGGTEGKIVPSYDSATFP

Test [4] deals with T4, 348 GPCRs (Homo sapiens, UniProt Q9NYV9).
T4 construct: expressed in transfected cells; host or cells: HEK293A
T4 sequence (Q9NYV9 1-303): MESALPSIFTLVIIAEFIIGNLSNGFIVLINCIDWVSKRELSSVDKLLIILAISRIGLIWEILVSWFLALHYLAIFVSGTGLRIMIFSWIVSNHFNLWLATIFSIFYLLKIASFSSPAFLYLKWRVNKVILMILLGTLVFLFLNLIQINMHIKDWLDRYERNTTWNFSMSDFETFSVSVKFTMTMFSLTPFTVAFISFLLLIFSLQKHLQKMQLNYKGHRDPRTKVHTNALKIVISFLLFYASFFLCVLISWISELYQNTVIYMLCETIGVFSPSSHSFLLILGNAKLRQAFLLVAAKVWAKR
Particulars: 10µM, Favipiravir 100μM.

Test [5] deals with 348 GPCRs.
Test [6] addresses T5, 348 GPCRs (Homo sapiens, UniProt Q16581).
T5 sequence (Q16581 1-482): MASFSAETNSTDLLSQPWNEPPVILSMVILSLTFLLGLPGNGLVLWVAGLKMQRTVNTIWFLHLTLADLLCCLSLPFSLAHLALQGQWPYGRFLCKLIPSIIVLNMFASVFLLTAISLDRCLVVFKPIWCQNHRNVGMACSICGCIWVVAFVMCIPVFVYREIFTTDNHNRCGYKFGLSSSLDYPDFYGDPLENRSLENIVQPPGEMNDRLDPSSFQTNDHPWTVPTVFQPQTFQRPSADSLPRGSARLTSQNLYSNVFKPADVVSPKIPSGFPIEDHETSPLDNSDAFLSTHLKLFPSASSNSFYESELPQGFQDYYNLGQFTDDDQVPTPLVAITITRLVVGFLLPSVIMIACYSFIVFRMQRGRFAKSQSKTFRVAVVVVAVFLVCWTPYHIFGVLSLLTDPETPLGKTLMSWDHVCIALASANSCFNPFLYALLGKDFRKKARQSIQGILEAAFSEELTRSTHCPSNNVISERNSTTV
Particulars: 10µM, Favipiravir 100μM.

[7] abbreviates: read-out: % GPCR activation compared to TPA, GPCR GPR123 (Adhesion G Protein-Coupled Receptor A1 (ADGRA1)).
Setting [8] is: read-out: % GPCR activation compared to TPA, NPY2R (neuropeptide Y receptor Y2).
Setting [9] is: read-out: % GPCR activation compared to TPA, GPCR GPR101 (G protein-coupled receptor 101).
The mark [10] stands for this setting: read-out: % GPCR activation compared to TPA, TAS2R13 (taste receptor, type 2, member 13).
Where [11] appears, read: EP3 iso6 (prostaglandin E receptor 3 iso6), 10µM, Favipiravir 100μM.
The mark [12] stands for this setting: GPCR GPR68 long (G protein-coupled receptor 68 long), 10µM.
The mark [13] stands for this setting: GPCR LTB4R2B (leukotriene B4 receptor 2), 10µM.
Where [14] appears, read: GPCR P2Y13 short (purinergic receptor P2Y, G-protein coupled, 13 short), 10µM.
Where [15] appears, read: GPR17 short (G protein-coupled receptor 17 short), 10µM, Favipiravir 100μM.
[16] abbreviates: read-out: % GPCR activation compared to TPA, C3AR1 (complement C3a receptor 1).
Setting [17] is: NPY2R (neuropeptide Y receptor Y2), read-out: % GPCR activation compared to TPA.
The mark [18] stands for this setting: TAS2R13 (taste receptor, type 2, member 13), read-out: % GPCR activation compared to TPA.
The mark [19] stands for this setting: C3AR1 (complement C3a receptor 1), read-out: % GPCR activation compared to TPA.
The mark [20] stands for this setting: GPCR GPR123 (Adhesion G Protein-Coupled Receptor A1 (ADGRA1)), read-out: % GPCR activation compared to TPA.
The mark [21] stands for this setting: GPCR GPR101 (G protein-coupled receptor 101), read-out: % GPCR activation compared to TPA.

Structures are written as SMILES. Entries after “also recorded” stand apart in the source; their conditions may differ. Read-outs that look alike come from different tables or passages of the source.

On to `CC(C)OC(=O)[C@H](C)N[P@](=O)(OC[C@H]1O[C@@H](n2ccc(=O)[nH]c2=O)[C@](C)(F)[C@@H]1O)Oc1ccccc1` [sofosbuvir], for which the activation at 10 µM was 0.445% at 348 GPCRs [1] (setting [7]), -3.4% at 348 GPCRs [3] (setting [9]) and -0.133% on 348 GPCRs [6] (setting [16]). Besides, the activation at 100 µM at 348 GPCRs [2] (setting [8]) is -5.23%; on 348 GPCRs [4] (setting [10]), -2.09%. The “% GPCR activation compared to TPA” value in the test with 348 GPCRs [5] (setting [11]) was -2.666%; in the test on 348 GPCRs [5] (setting [12]) it was -162.099%; in the test with 348 GPCRs [5] (setting [13]), 1.863%; in the test on 348 GPCRs [5] (setting [14]), -2.679%; with 348 GPCRs [5] (setting [15]), 1.814%.
Take `NC(=O)c1nc(F)cnc1O` [favipiravir, 6-fluoro-3-hydroxy-2-pyrazinecarboxamide]: the activation at 100 µM on 348 GPCRs [1] (GPCR GPR123 (Adhesion G Protein-Coupled Receptor A1 (ADGRA1)), 100μM, read-out: % GPCR activation compared to TPA) is -1.45%; on 348 GPCRs [2] (setting [17]), -0.896%; at 348 GPCRs [3] (GPCR GPR101 (G protein-coupled receptor 101), 100μM, read-out: % GPCR activation compared to TPA), -0.717%; on 348 GPCRs [4] (setting [18]), -1.06%. The “% GPCR activation compared to TPA” value in the test on 348 GPCRs [5] (setting [11]) is recorded as 0.2801%; with 348 GPCRs [5] (GPCR GPR68 long (G protein-coupled receptor 68 long), 100μM), 5.02%; in the test on 348 GPCRs [5] (GPCR LTB4R2B (leukotriene B4 receptor 2), 100μM), -0.02753%; in the test with 348 GPCRs [5] (GPCR P2Y13 short (purinergic receptor P2Y, G-protein coupled, 13 short), 100μM), 1.698%; with 348 GPCRs [5] (setting [15]), -0.5013%. In addition, the activation at 10 µM on 348 GPCRs [6] (setting [19]) was 1.69%.
As for `CCC(CC)COC(=O)[C@H](C)N[P@](=O)(OC[C@H]1O[C@@](C#N)(c2ccc3c(N)ncnn23)[C@H](O)[C@@H]1O)Oc1ccccc1` [remdesivir], the figures for the activation at 10 µM at 348 GPCRs [1] (setting [7]), on 348 GPCRs [3] (setting [9]) and at 348 GPCRs [6] (setting [16]) were -0.903%, 1.7% and 6.7%, respectively. Besides, the activation at 100 µM amounted to 1.07% on 348 GPCRs [2] (setting [8]) and 1.1% on 348 GPCRs [4] (setting [10]). Further, in the test on 348 GPCRs [5] (10 μM remdesivir, molnupiravir, 100 μM favipiravir, chimeric Gα), the “GPCR activation in screening against 348 GPCRs” value was “selectively activate UTS2R; also recorded: selective activator for the urotensin-II receptor (UTS2R)”. In addition, the “% GPCR activation compared to TPA” value was 1.469% in the test on 348 GPCRs [5] (setting [11]); -2.927% with 348 GPCRs [5] (setting [12]); -0.9744% in the test with 348 GPCRs [5] (setting [13]); 2.55% in the test with 348 GPCRs [5] (setting [14]); 2.96% in the test on 348 GPCRs [5] (setting [15]). In addition, the “effect on adenosine receptors” value with 348 GPCRs [5] (GPCR assay, adenosine receptors) is given as “no effect on adenosine receptors”.
In the case of `N#C[C@@]1(c2ccc3c(N)ncnn23)O[C@H](CO)[C@@H](O)[C@H]1O` [GS441524], the figures for the activation at 10 µM on 348 GPCRs [1] (setting [20]), at 348 GPCRs [3] (setting [21]) and at 348 GPCRs [6] (setting [19]) were 0.375%, -0.779% and 3.33%, respectively. The activation at 100 µM amounted to 0.462% on 348 GPCRs [2] (setting [17]) and 0.783% at 348 GPCRs [4] (setting [18]). The “% GPCR activation compared to TPA” value in the test with 348 GPCRs [5] (setting [11]) is recorded as -0.4587%; with 348 GPCRs [5] (setting [12]) it was 3.274%; with 348 GPCRs [5] (setting [13]) it was -0.1822%; in the test on 348 GPCRs [5] (setting [14]), 0.9471%; with 348 GPCRs [5] (setting [15]), 2.36%.
With `CC(C)C(=O)OC[C@H]1O[C@@H](n2ccc(NO)nc2=O)[C@H](O)[C@@H]1O` [molnupiravir], the activation at 10 µM was -2.47% at 348 GPCRs [1] (setting [20]), -0.865% at 348 GPCRs [3] (setting [21]) and -0.773% at 348 GPCRs [6] (setting [19]). Further, the activation at 100 µM was -4.76% at 348 GPCRs [2] (setting [17]) and -0.971% on 348 GPCRs [4] (setting [18]). Moreover, the “% GPCR activation compared to TPA” value in the test on 348 GPCRs [5] (setting [11]) is listed as -0.792%; in the test with 348 GPCRs [5] (setting [12]), -159.537%; with 348 GPCRs [5] (setting [13]), -0.2056%; in the test with 348 GPCRs [5] (setting [14]), -3.484%; with 348 GPCRs [5] (setting [15]) it was 0.1735%.
